Experimental data published in publication PMC9229798, “Antioxidant Activity and Cytotoxicity of Aromatic Oligosulfides” (Molecules, 2022).
Blank lines part the entries; values can stand above or below the compound they belong to.

What was measured:
[1] = Fe2+ chelating activity; read-out: FIC, IC50 (EDTA activity); cited from earlier work
A-549 = assay: MTT assay; format: cell-based, human
Procedure: (§1) The antiproliferative activity of aromatic oligosulfides 1–6 was determined against human cell lines, including colon carcinoma HCT-116, breast adenocarcinoma MCF-7, lung adenocarcinoma A-549, colorectal carcinoma SW-480, and non-tumourigenic WI-38, using the MTT assay (Table 4). […] However, some selectivity for cancer cells was evident and the IC50 values for non-tumourigenic cells were slightly higher for compounds 1 and 2.
(§2) Cell survival was determined by the MTT [3-(4,5-[…])-2,5-diphenyl tetrazolium bromide] assay by Niks method with small modifications. HCT-116 (colon carcinoma), MCF-7 (breast adenocarcinoma), A-549 (lung adenocarcinoma) and SW-480 (colorectal carcinoma) human cancer cell lines and WI-38 (cell line composed of fibroblasts) were cultured in DMEM (PanEco, Moscow, Russia) with Glutamin (PanEco, Moscow, Russia) and antibiotics (PanEco, Moscow, Russia) in CO2 (5%) at 37 °C. The compounds were dissolved (20 mM) in DMSO and then added to the cell culture medium at the required concentration with a maximum DMSO content of 0.5 v/v%. At these concentrations, DMSO had no effect on cell viability, as was shown in the control experiments. Cells were cultured in 96-well plates (7000 cells/well) and treated with various concentrations (from […]) of the test compounds as well as doxorubicin at 37 °C for 72 h. Cell viability was determined using the MTT assay, which quantified dehydrogenase activity. Then, the cells were incubated at 37 °C for 50 min with a solution of MTT ([…], 5 mg × mL^−1) (Sigma-Aldrich, St. Louis, MO, USA). The supernatant was discarded, and cells were dissolved in DMSO ([…]). The optical density of the solution was measured at 570 nm with use of a multiwall-plate reader (Anthos Zenyth 2000rt, Biochrom, Cambridge, UK), and the percentage of surviving cells was calculated from the absorbance of untreated cells. Each experiment was repeated at least three times, and each concentration was tested in at least three replicates. Data were presented as a graph of the percentage of surviving cells versus the concentration of the test substances. The meanings of 50% inhibition concentration (IC50) with standard deviation were calculated using GraphPad Prism Version 5.03 for Windows (GraphPad Software, San Diego, CA, USA).

HCT-116 [2] = assay: MTT assay; format: cell-based, human
Procedure: as §1, §2

MCF-7 = assay: MTT assay; format: cell-based, human
Procedure: as §1, §2

SW-480 = assay: MTT assay; format: cell-based, human
Procedure: as §1, §2

HCT-116 [3] = assay: Annexin V/Dead Cell assay; format: cell-based, human; conditions: HCT-116, 2 × IC50, 24 h
Source text: Apoptosis or programmed cell death is an important and active regulatory pathway of cell growth and proliferation. Cells respond to specific induction signals by initiating intracellular processes that result in characteristic physiological changes. Among these are externalization of phosphatidylserine (PS) to the cell surface, cleavage and degradation of specific cellular proteins, compaction and fragmentation of nuclear chromatin, and loss of membrane integrity. Phosphatidylserine (PS) is normally located in the inner part of the cell membrane. In the initial stage of apoptosis, the PS residues which translocated to the extracellular are detected by Annexin V, which is a calcium-dependent phospholipid-binding protein with a high affinity for PS. Annexin V flow cytometric assay was used to evaluate the compounds’ ability to induce apoptosis and influence on cell death. HCT-116 colon carcinoma and A-549 lung adenocarcinoma cells were treated by disulfides 2 and 3.
HCT-116 (colon carcinoma) and A-549 (lung carcinoma) cells (1 × 10^6) were seeded in a six-well plate and were incubated for 24 h. […] After incubation, the cells were harvested by trypsinization, precipitated by centrifugation (3000 rpm), washed with PBS, recentrifuged, and the buffer was removed. DMEM was added to achieve a cell concentration of 400–1000 cells/µL. The Muse Annexin V & Dead Cell Kit reagent (100 µL) was added to the cells and […] for 20 min at room temperature in the dark. The results were recorded on a Muse Cell Analyzer flow cytometer (Merck, Rahway, NJ, USA).

SMILES: O=C([O-])CN(CCN(CC(=O)[O-])CC(=O)O)CC(=O)O.[Na+].[Na+] [EDTA, reference compound]
IC50 [1]: 380 ± 30 µM

SMILES: N.N.[Cl][Pt][Cl] [cisplatin, reference compound]
IC50 (A-549; 72 h): 20.1 ± 5.6 µM
IC50 (HCT-116 [2]; 72 h): 9.1 ± 2.3 µM
IC50 (MCF-7; 72 h): > 30 µM
IC50 (SW-480; 72 h): 17.6 ± 5.4 µM

IC50 (A-549; Homo sapiens, A549, 72 h): 0.24 ± 0.02 µM
IC50 (HCT-116 [2]; Homo sapiens, HCT-116, 72 h): 0.65 ± 0.05 µM
IC50 (MCF-7; Homo sapiens, MCF7, 72 h): 0.28 ± 0.03 µM
IC50 (SW-480; Homo sapiens, SW480, 72 h): 0.45 ± 0.06 µM
SMILES: COc1cccc2c1C(=O)c1c(O)c3c(c(O)c1C2=O)C[C@@](O)(C(=O)CO)C[C@@H]3O[C@H]1C[C@H](N)[C@H](O)[C@H](C)O1 [doxorubicine, doxorubicin, reference compound]
total apoptotic cells (HCT-116 [3]): 17.9%
